Measured values taken from patent US20230263786A1, “MODULATION OF DRUG-DRUG INTERACTIONS OF VADADUSTAT” (Akebia Therapeutics, Inc., priority 2020, published 2023).
Where two headings read alike, the source gives them in different places.

Columns and labels:
[1] = biological target: T1, UGT1A1 (Homo sapiens, UniProt P22309); experiment: UGT1A1 inhibition in vitro; format: in vitro ADME
T1 sequence (P22309 26-533): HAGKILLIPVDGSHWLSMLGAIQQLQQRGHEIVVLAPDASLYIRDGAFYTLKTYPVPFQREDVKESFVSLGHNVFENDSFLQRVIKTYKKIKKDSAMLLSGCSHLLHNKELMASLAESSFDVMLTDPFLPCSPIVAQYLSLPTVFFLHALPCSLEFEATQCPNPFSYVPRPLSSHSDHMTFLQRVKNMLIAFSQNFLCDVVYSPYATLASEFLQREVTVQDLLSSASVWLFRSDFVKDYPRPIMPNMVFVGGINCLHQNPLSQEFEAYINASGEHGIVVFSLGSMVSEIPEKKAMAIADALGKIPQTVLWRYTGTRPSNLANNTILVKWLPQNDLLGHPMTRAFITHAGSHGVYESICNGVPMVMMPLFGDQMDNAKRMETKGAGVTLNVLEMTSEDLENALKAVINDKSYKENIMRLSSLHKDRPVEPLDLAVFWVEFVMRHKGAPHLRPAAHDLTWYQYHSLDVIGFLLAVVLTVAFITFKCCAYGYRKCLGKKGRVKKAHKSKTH

[2] = biological target: T2, CYP2B6 (Homo sapiens, UniProt P20813); experiment: CYP2B6 inhibition in vitro; format: in vitro ADME
T2 sequence (P20813 1-491): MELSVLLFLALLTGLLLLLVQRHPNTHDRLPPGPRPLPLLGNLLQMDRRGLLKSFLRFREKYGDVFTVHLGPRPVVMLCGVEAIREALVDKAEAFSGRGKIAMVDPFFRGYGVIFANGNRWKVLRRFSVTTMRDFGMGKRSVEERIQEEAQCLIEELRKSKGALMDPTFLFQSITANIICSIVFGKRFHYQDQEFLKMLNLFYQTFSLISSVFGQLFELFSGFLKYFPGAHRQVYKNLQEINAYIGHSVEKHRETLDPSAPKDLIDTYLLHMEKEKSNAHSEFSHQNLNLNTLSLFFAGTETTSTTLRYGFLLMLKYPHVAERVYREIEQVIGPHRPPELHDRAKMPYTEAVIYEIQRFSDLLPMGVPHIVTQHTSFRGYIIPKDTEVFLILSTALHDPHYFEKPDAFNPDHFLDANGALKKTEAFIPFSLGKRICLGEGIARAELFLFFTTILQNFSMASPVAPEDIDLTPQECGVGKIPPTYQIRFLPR

[3] = Phase 1 oral iron interaction study, Cohort 2 (before meal): sucroferric oxyhydroxide; format: in vivo, human; settings: for AUC(0-inf) / AUC(0-t) / Cmax / half-life: male, human, plasma, oral; for AUC(0-inf): read-out: AUC(0-inf), LS geometric mean; for AUC(0-t): read-out: AUC(0-last), LS geometric mean; for Cmax: read-out: Cmax, LS geometric mean; for half-life: read-out: t1/2, LS geometric mean (converted)
Source text: The study included 3 periods as follow: • Screening: performed within 4 weeks before the day of administration of the study drug. • Evaluation period: Cohort 1 was confined to the study site for 10-night, 11-day. Cohort 2 and Cohort 3 were confined to the study site for 7 nights and 8 days. • Post-administration tests: performed 3 days after administration of the last dose of the study drug.
In Cohort 2, 20 subjects were further randomized into 2 groups (10 subjects per group) and the evaluation period was divided into 2 periods during the study:
Administration of vadadustat tablets alone: after fasting for at least 10 hours and immediately before eating breakfast (5 minutes before starting the meal), 1 vadadustat tablet (150 mg) will be taken orally with 200 mL of water, then breakfast would be eaten over a period of 10 minutes (extra water may be drunk if more is needed when taking the tablet, and the extra volume would be recorded). After breakfast, subjects would fast until the end of the collection of blood samples at 4 hours after administration of the study drug. Subjects would eat lunch over a period of 20 minutes after blood samples were collected at 4 hours after administration of the study drug. After lunch, subjects would fast until dinner, when they would eat dinner over a period of 20 minutes at 10 hours after administration of the study drug. Subjects would fast from dinner until breakfast the next morning.
Administration of vadadustat tablets and sucroferric oxyhydroxide: after fasting for at least 10 hours and immediately before eating breakfast (5 minutes before starting the meal), subjects would chew and swallow 2 tablets of sucroferric oxyhydroxide (containing 1000 mg of iron), then 1 vadadustat tablet (150 mg) would be taken orally with 200 mL of water, then breakfast would be eaten over a period of 10 minutes (extra water may be drunk if more is needed when taking the tablets, and the extra volume would be recorded). After breakfast, subjects would fast until the end of the collection of blood samples at 4 hours after administration of the study drug. After blood samples were collected at 4 hours after administration of the study drug and immediately before lunch, subjects would chew and swallow 2 tablets of sucroferric oxyhydroxide (containing 1000 mg of iron), then eat lunch over a period of 20 minutes. After lunch, subjects will fast until dinner, and immediately before dinner at 10 hours after administration of the study drug, chew and swallow 2 tablets of sucroferric oxyhydroxide (containing 1000 mg of iron), then eat dinner over a period of 20 minutes. Subjects would fast from dinner until breakfast the next morning.

[4] = 150 mg with sucroferric oxyhydroxide (1000 mg iron), before meal

Q: With `O=C(O)CNC(=O)c1ncc(-c2cccc(Cl)c2)cc1O` [Compound 1, {[5-(3-chlorophenyl)-3-hydroxypyridine-2-carbonyl]amino}acetic acid] as the molecule, how does the “inhibitory effect on UGT1A1” value [1] read?
A: inhibitory effect

Q: And the “inhibitory effect on CYP2B6” value [2]?
A: inhibitory effect

Q: What about the “Kel, LS geometric mean” value [3, 4] of the same molecule?
A: 0.16 h⁻¹

Q: And the “Kel, LS geometric mean” value ([3]; Compound 1 150 mg alone, before meal)?
A: 0.13 h⁻¹

Q: And the AUC(0-inf) ([3]; 150 mg)?
A: 99500 ng·h/mL

Q: And the AUC(0-t) ([3]; 150 mg)?
A: 95700 ng·h/mL

Q: And the Cmax ([3]; 150 mg)?
A: 15200 ng/mL

Q: And the half-life ([3]; 150 mg)?
A: 5.17 h

Q: What about the AUC(0-inf) [3, 4] of the same molecule?
A: 45700 ng·h/mL

Q: And the AUC(0-t) [3, 4]?
A: 44500 ng·h/mL

Q: And the Cmax [3, 4]?
A: 8810 ng/mL

Q: And the half-life [3, 4]?
A: 4.33 h
